Experiments:
[1] = test system: peripheral blood T cells or TIL from melanoma patients; assay: ELISPOT IFN-γ secretion assay, T-cell responses against HLA-A2 binding ML-IAP peptides; format: cell-based, human
Description: Peripheral blood was obtained from melanoma patients before vaccination and subsequent to a series of vaccinations. In order to identify peptide-specific T-cell precursors, peripheral blood lymphocytes (PBL) were used directly in the ELISPOT (designated direct ELISPOT). However, to extend the sensitivity of the ELISPOT assay, PBL were stimulated once in vitro prior to analysis^17,18. At day 0, PBL or crushed lymph nodes were thawed and plated in 2 ml/well at a concentration of 2×10^6 cells in 24-well plates (Nunc, Denmark) in X-vivo medium (Bio Whittaker, Walkersville, Md.), 5% heat-inactivated human serum, and 2 mM of L-glutamine in the presence of 10 μM of peptide. Two days later 20 IU/ml recombinant interleukin-2 (IL-2) (Chiron, Ratingen, Germany) was added to the cultures. The cultured cells were tested for reactivity in the ELISPOT on day 8.
The ELISPOT assay used to quantify peptide epitope specific interferon-7 releasing effector cells was adapted from Lalvani et al.^37, and Scheibenbogen et al.^38. Briefly, nitrocellulose bottomed 96-well plates (MultiScreen MAIP N45, Millipore) were coated overnight at 4° C. with 7.5 μg/ml of anti-IFN-γ antibody (1-D1K, Mabtech, Sweden) in 75 μl sterile PBS. Subsequently, the wells were washed six times with PBS, and non-specific binding were blocked by X-vivo medium for 2 hours at 37° C. Freshly isolated PBL or cells, which had been stimulated once in vitro, were added in duplicates at different cell concentrations (from 10^6 to 10^5 cells per well for non-stimulated PBL, and from 3×10^5-3×10^4 cells per well for PBL which had been stimulated once in vitro), in 100 μl X-vivo medium. Peptides were then added to each well to a final concentration of 2 μM and incubated overnight at 37° C.
The following day, media was discarded and the wells were washed (six times) with PBS containing 0.05% Tween (PBS/Tw) before the addition of biotinylated secondary antibody (7-B6-1-Biotin, Mabtech) at 0.5 μg/ml in 75 μl PBS containing 1% BSA and 0.02% NaN3 (PBS/BSA). The plates were incubated at room temperature for 2 hours. The wells were washed (six times) with PBS/Tw. Then 75 μl of Avidin-enzyme conjugate (AP-Avidin, Calbiochem) diluted 1:2000 in PBS/BSA were added to each well and incubated for 1 hour. The enzyme substrate NBT/BCIP was prepared freshly according to the manufacturers' instructions (Gibco, code 18280-016) and 75 μl were added to each well and incubated for 5-10 min. The reaction was terminated by washing with tap-water upon the emergence of dark purple spots. The spots were then counted using the AlphaImager System (Alpha Innotech, San Leandro, Calif., USA) and the peptide specific CTL frequency could be calculated as the number of spot-forming cells.
To extend the sensitivity of the ELISPOT assay, PBL were stimulated once in vitro prior to analysis^17,18. At day 0, PBL or crushed lymph nodes were thawed and plated in 2 ml/well at a concentration of 2×10^6 cells in 24-well plates (Nunc, Denmark) in X-vivo medium (Bio Whittaker, Walkersville, Md.), 5% heat-inactivated human serum, and 2 mM of L-glutamine in the presence of 10 μM of peptide. Two days later 20 IU/ml recombinant interleukin-2 (IL-2) (Chiron, Ratingen, Germany) was added to the cultures. The cultured cells were tested for reactivity in the ELISPOT on day 12.
The ELISPOT assay used to quantify peptide epitope-specific interferon-γ-releasing effector cells was performed as described previously^19. Briefly, nitrocellulose bottomed 96-well plates (MultiScreen MAIP N45, Millipore, Hedehusene, Denmark) were coated with anti-IFN-7 antibody (1-D1K, Mabtech, Nacka, Sweden). The wells were washed, blocked by X-vivo medium, and cells were added in duplicates at different cell concentrations. Peptides were then added to each well and the plates were incubated overnight. The following day, media was discarded and the wells were washed prior to addition of biotinylated secondary antibody (7-B6-1-Biotin, Mabtech). […]

[2] = test system: primary melanoma sections; assay: In situ detection of ML-IAP-reactive CTL with multimerized HLA-A2/peptide complexes; set-up: species or system human; details: sections of primary melanoma from six patients
Description: In situ detection of ML-IAP-reactive CTL. Confocal laser scanning microscopy was used to detect CTL reacting with a Cy3-conjugated anti-CD8 antibody (red channel) and a fluorescein isothiocyanate-conjugated multimeric HLA-A2/ML-IAP280 construct (green channel) (first and second columns) or with a fluorescein isothiocyanate conjugated multimeric HLA-A2/ML-IAP245 construct (last column) in primary tumors from two HLA-A2-positive melanoma patients.
HLA-A2 and ML-IAP245/HLA-A2-specific monomers were multimerized using dextran molecules, which were conjugated with both streptavidin and fluorescein isothiocyanate. Multimerized MHC complexes were used to stain acetone-fixed, frozen material as described previously^11,48 and antigen-specific cells were visualized using a confocal laser microscope. Sections of primary melanoma from six patients were analyzed, and ML-IAP280- and ML-IAP245-reactive CTL could readily be detected in situ in the tumor microenvironment in two of the patients (FIG. 4).

In the case of `CC(C)C[C@H](NC(=O)[C@@H](N)CCCNC(=N)N)C(=O)N[C@@H](CCC(N)=O)C(=O)N[C@@H](CCC(=O)O)C(=O)N[C@@H](CCC(=O)O)C(=O)N[C@@H](CCCNC(=N)N)C(=O)N[C@H](C(=O)N[C@@H](CS)C(=O)N[C@@H](CCCCN)C(=O)N[C@H](C(=O)O)C(C)C)[C@@H](C)O` [ML-IAP245], the “strength of spontaneous CTL response” value ([1]; TIL and PBL from melanoma patients, in words) is reported as “Weaker spontaneous responses”, the “TIL samples in which a response against the peptide was detected” value ([1]; TIL from melanoma patients (n=22), stimulated once in vitro with peptide, number of samples) is reported as “five” and the “PBL samples in which a response against the peptide was detected” value ([1]; peripheral blood T cells from melanoma patients (n=7), stimulated once in vitro with peptide, number of samples) is reported as “one”. For the same compound, the “patients with peptide-reactive CTL detected in situ in the tumor microenvironment” value [2] was “two”.

— patent US7687465B2, “Therapeutic cancer vaccine” (Kraeftens Bekaempelse, priority 2003, dated 2010)
